Measurements reported in patent publication US20230227476A1, “GALLIUM-SALOPHEN ANTIMICROBIAL COMPOUNDS AND METHODS OF USE THEREOF” (priority 2020, published 2023).
Values joined by “and” are separate entries in the source; they are usually repeats but may differ in a detail not shown here. Equal entries are not always repeated. “Also recorded” adds a separate entry of the source.

Legend:
[1] = test system: P. aeruginosa (PiuA); conditions: cited from earlier work
[2] = test system: Has signaling cascade (hasR promoter); assay: hasR-lacZ β-galactosidase transcriptional reporter assay; format: cell-based, Pseudomonas aeruginosa; conditions: for transcriptional activation of the hasR promoter (Has signaling): 1 μM pre-formed HasAp complex, relative to heme (holo-HasAp)
Description: Transcriptional Reporter Assay. The chromosomal fusions of the PhasR-lacZ and promoterless lacZ gene were previously constructed and used to report on transcriptional activation of the Has signaling cascade. For all β-gal assays, strains were grown overnight in 50 mL LB broth with shaking at 37° C. Cells were harvested by centrifugation and resuspended in M9 media. Strains were then inoculated at A600=0.05 in triplicate in 25 mL of M9 minimal medium and cultured for 3 h to deplete bacterial iron stores. Growth cultures were then supplemented with 1 μM of either holo-HasAp, GaPPIX-HasAp, FeSal-HasAp or GaSal-HasAp. Aliquots (1 mL) at 0 (just prior to supplementation), 2 and 5 h post supplementation were harvested and assayed for […] activity as described previously.
Testing new GaSal analogs (KD<1 μM) for inhibition of heme sensing by transcriptional reporter assays. Transcriptional reporter assays to determine inhibition of the dependent CSS cascade are performed. It was previously shown that GaSal-HasAp inhibits transcriptional activation of the has operon (FIG. 10B). Furthermore, as the deletion of hasR attenuates virulence, inhibition of the signaling pathway combined with decreased heme uptake is a viable therapeutic strategy. PAO1 hasR-lacZ cultures are grown under iron limiting conditions in defined media (M9 or SSM) pelleted and washed to remove exogenous HasAp. Cells are resuspended to a final OD600 of 0.05 and supplemented with 1.0 μM HasAp reconstituted with heme or selected GaSal derivatives. Samples are removed at various times (0.5-5 h) and assayed for β-Gal activity and corrected for differences in OD600. Competition assays are also performed in the presence of varying heme and salophen concentrations.

[3] = molecular target: T1, HasAp (Pseudomonas aeruginosa, UniProt G3XD33); assay: Binding affinity to HasAp by fluorescence quenching; conditions: for Kd: read-out: KD (nM), binding affinities of ligands to HasAp, fluorescence quenching, 1 μM apo-HasAp, 20 mM sodium phosphate pH 7.4, 25° C.; for binding to HasAp weaker than heme: relative to heme
Description: Binding Affinity Determination by Fluorescence Quenching. Binding affinities were determined on an ISS K2 multifrequency fluorometer in L-format using 1 cm quartz cuvettes. To a 1 μM solution of apo-HasAp in 20 mM sodium phosphate buffer (pH 7.4, 25° C.) was titrated ligand of interest. Emission spectra were recorded (300-500 nm) following excitation at 295 nm. The decrease in maximum emission was plotted against the ligand concentration (accounting for dilution) and fit to one-site binding using GraphPad Prism 8.
Determine binding affinities (KD) by FQ. KD values of all synthesized compounds are calculated by FQ using previously described methods. Binding affinities are determined in a final volume of 200 μL in black flat-bottom 96-well plates using microplate reader. HasAp concentration is kept at 1.0 μM in Tris-HCl buffer (20 mM, pH 8.0). Inhibitors solvated in DMSO are added across a concentration range of 0.01 to 100 μM. The HasAp excitation (295 nm) emission spectrum is recorded from 300-500 nm. The KD values are calculated from plots of total binding vs. ligand concentration, where total binding corresponds to the fraction of binding sites represented by the decrease in fluorescence at the maximum emission (332 nm). All experiments are performed in triplicate.

[4] = molecular target: T1, HasAp; assay: Circular dichroism thermal denaturation of HasAp; conditions: circular dichroism at 222 nm, 10 μM HasAp
Description: Circular Dichroism. Circular dichroism experiments were performed on a Jasco J-810 spectropolarimeter using 1 mm quartz cuvettes. All samples were recorded with 10 μM HasAp in 10 mM potassium phosphate (pH 7.4) at 25° C. from 190 to 260 nm at a scan rate of 50 nm/min, with each spectrum representing 5 accumulations. Data were acquired at […] resolution and 10 nm bandwidth. The mean residue ellipticity (degrees cm^2 dmol^−1) was calculated using CDPRO software as recommended by Jasco. Thermal denaturation studies were performed over a temperature range of 20-90° C. at 222 nm. Melting temperatures were determined by fitting denaturation data to a Boltzmann-Sigmoidal distribution in GraphPad Prism 8.

[5] = test system: HasAp; assay: Saturation transfer difference NMR in PAO1 ΔhasAp supernatant; format: binding, Pseudomonas aeruginosa; conditions: 1H NMR, 24 hr
Description: (§1) Saturation Transfer Difference NMR. PAO1 ΔhasAp was cultured overnight from a single colony in LB Broth. The cells were harvested by centrifugation and resuspended in M9 Minimal Media. 10 mL of M9 were inoculated at A600˜0.05 and grown for 3 h. Cell-free supernatant was obtained by centrifugation and subsequent filter-sterilization by a […] syringe filter. Supernatant was then used as the solvent for subsequent STD experiments. Final sample volume contained 600 μL of supernatant with or without 10 μM HasAp (as a negative control) and 5% D2O for solvent locking.
(§2) The STD experiments were performed at 25° C. on an Agilent DD2 500 MHz spectrometer. The vendor supplied pulse sequences, dpfgse_satxfer.c was used, the on- and off-resonance fids are subtracted in-place through phase-cycling, to yield only the difference fid. Selective saturation was performed for 2.5 s and consisted of 50 ms Gaussian pulses separated by a 1-ms delay at a field strength of 50 Hz. […]
(§3) Determine the binding mode of GaSal and top derivatives by STD-, ^1H-^15N HSQC-NMR, and HDX-MS. […] Following incubation (4 h) 4,4-dimethyl-4-silapentane-1-sulfonic acid (DSS, 3 μL in D20) is added as internal standard and spectra recorded as reported. […] Combined chemical shift differences between the apo and each of the titration points are calculated using the following equation: […]

[6] = molecular target: T1, HasAp; assay: as above; format: binding; conditions: GaSal 1 mM, HasAp 10 μM, PAO1 ΔhasAp supernatant
Description: as §1, §2, §3

[7] = test system: P. aeruginosa PAO1 and mutants; assay: Growth curves / antibacterial activity in M9 minimal medium; format: cell-based, Pseudomonas aeruginosa; conditions: M9 minimal media, 96-well plate
Description: Growth Curves. P. aeruginosa strains were grown overnight in 50 mL LB Broth with shaking at 37° C. Cells were harvested by centrifugation and resuspended in M9 minimal medium. Strains were then inoculated at A600=0.05 in 10 mL M9 minimal medium and grown for 3 h to deplete bacterial iron stores. Cultures were then plated in 96-well plates (Costar clear, flat-bottom with lid, Corning Inc) at A600≈0.05 to a final volume of 200 μL in M9 medium. Supplements (2 μL) were added as 100× stock solutions. Growth curves were recorded at 600 nm with a Biotek Synergy™ HT plate reader over 16 h of growth with shaking at 37° C. To account for background absorbance, blank wells were prepared with the same supplements but only M9 medium without culture. The blank wells were subtracted from the average of three growth wells per condition.

T1 sequence (G3XD33 entry or part of it): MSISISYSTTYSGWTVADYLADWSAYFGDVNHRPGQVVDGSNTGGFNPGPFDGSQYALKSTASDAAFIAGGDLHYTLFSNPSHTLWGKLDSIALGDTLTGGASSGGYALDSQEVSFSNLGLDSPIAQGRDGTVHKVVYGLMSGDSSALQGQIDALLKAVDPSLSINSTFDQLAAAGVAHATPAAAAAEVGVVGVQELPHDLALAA

| Structure (SMILES) | transcriptional activation of the hasR promoter (Has signaling) [2] | Kd [3] | binding to HasAp weaker than heme [3] [fold] | melting temperature of HasAp [4] [°C] | further results |
| --- | --- | --- | --- | --- | --- |
| CC(C)(O/N=C(\C(=O)N[C@@H]1C(=O)N2C(C(=O)[O-])=C(C[N+]3(CCNC(=O)c4ccc(O)c(O)c4Cl)CCCC3)CS[C@H]12)c1csc(N)n1)C(=O)O [Cefiderocol] |  |  |  |  | resistance rates ([1]; at 10×MIC): < 7×10^−9; increase in MIC ([1]; mutations with a deficiency in PiuA): ~20 fold |
| Oc1ccccc1C=Nc1ccccc1N=Cc1ccccc1O.[Ga+3] [GaSal, GaSalophen Nitrate] | inhibited the holo-HasAp activation of the cell surface signaling cascade; also recorded: inhibition of transcriptional activation relative to heme or GaPPIX; also recorded: decreased transcriptional activation relative to heme | 1110 ± 220 nM | ~3 | 65 | β-galactosidase production ([2]; at 5 hours): increased β-galactosidase when compared to FeSal; stability in PAO1 ΔhasAp supernatant [5]: still intact after 24 hr; STD NMR saturation transfer from HasAp [6]: saturation transfer among all protons of GaSal |
| C=CC1=C(C)c2cc3[nH]c(cc4nc(cc5[nH]c(cc1n2)c(C)c5CCC(=O)O)C(CCC(=O)O)=C4C)c(C)c3C=C.[Fe+3] [Heme] |  | 350 ± 50 nM |  | > 90 |  |
| C=CC1=C(C)c2cc3[nH]c(cc4nc(cc5[nH]c(cc1n2)c(C)c5CCC(=O)O)C(CCC(=O)O)=C4C)c(C)c3C=C.[Ga+3] [GaPPIX, Gallium protoporphyrin IX] | no inhibition of transcriptional activation relative to heme; also recorded: increased (2 h) or similar transcriptional activation to heme | 280 ± 30 nM |  |  | growth of P. aeruginosa PAO1 [7]: inhibits growth |
| Oc1ccccc1C=Nc1ccccc1N=Cc1ccccc1O.[Fe+3] [FeSal, FeSal Chloride] | inhibited the holo-HasAp activation of the cell surface signaling cascade; also recorded: inhibition of transcriptional activation relative to heme or GaPPIX; also recorded: decreased transcriptional activation relative to heme | 1100 nM and 1050 nM | ~3 |  |  |
